Experimental data from ChEMBL document CHEMBL6096677, “Discovery of HZS60 as a Novel Brain Penetrant NMDAR/TRPM4 Interaction Interface Inhibitor with Improved Activity and Pharmacokinetic Properties for the Treatment of Cerebral Ischemia” (J Med Chem, 2025).

Key:
[1] = system: Cortical neurone; test: Neuroprotective activity against NMDA-induced excitotoxic cell death in C57BL/6 mouse primary cortical neurons assessed as cell viability at 10 uM by CCK8 assay (reference value: 16.31 +/- 3.19 %); format: functional; details: C57BL/6, Cortical neurone, read-out: Activity
[2] = system: Cortical neurone; test: Neuroprotective activity against OGD/R-induced ischemic injury in C57BL/6 mouse primary cortical neurons assessed as cell viability at 10 uM by CCK8 assay (reference value: 21.96 +/- 10.86 %); format: functional; details: C57BL/6, Cortical neurone, read-out: Activity
[3] = Half life in ICR mouse at 5 mg/kg, iv by LC-MS/MS analysis; format: ADME, organism-based; details: in vivo
[4] = Tmax in ICR mouse at 5 mg/kg, iv by LC-MS/MS analysis; format: ADME, organism-based; details: in vivo
[5] = Cmax in ICR mouse at 5 mg/kg, iv by LC-MS/MS analysis; format: ADME, organism-based; details: in vivo
[6] = AUC (0 to t) in ICR mouse at 5 mg/kg, iv by LC-MS/MS analysis; format: ADME, organism-based; details: in vivo
[7] = AUC (0 to infinity) in ICR mouse at 5 mg/kg, iv by LC-MS/MS analysis; format: ADME, organism-based; details: in vivo
[8] = Apparent volume of distribution in ICR mouse at 5 mg/kg, iv by LC-MS/MS analysis; format: ADME, organism-based; details: in vivo, read-out: Vz
[9] = Clearance in ICR mouse at 5 mg/kg, iv by LC-MS/MS analysis; format: ADME, organism-based; details: in vivo
[10] = MRT (0 to t) in ICR mouse at 5 mg/kg, iv by LC-MS/MS analysis; format: ADME, organism-based; details: in vivo
[11] = MRT (0 to infinity) in ICR mouse at 5 mg/kg, iv by LC-MS/MS analysis; format: ADME, organism-based; details: in vivo
[12] = Half life in ICR mouse at 25 mg/kg, IG by LC-MS/MS analysis; format: ADME, organism-based; details: in vivo, po
[13] = Tmax in ICR mouse at 25 mg/kg, IG by LC-MS/MS analysis; format: ADME, organism-based; details: in vivo, po
[14] = Cmax in ICR mouse at 25 mg/kg, IG by LC-MS/MS analysis; format: ADME, organism-based; details: in vivo, po
[15] = AUC (0 to t) in ICR mouse at 25 mg/kg, IG by LC-MS/MS analysis; format: ADME, organism-based; details: in vivo, po
[16] = AUC (0 to infinity) in ICR mouse at 25 mg/kg, IG by LC-MS/MS analysis; format: ADME, organism-based; details: in vivo, po
[17] = MRT (0 to t) in ICR mouse at 25 mg/kg, IG by LC-MS/MS analysis; format: ADME, organism-based; details: in vivo, po
[18] = MRT (0 to infinity) in ICR mouse at 25 mg/kg, IG by LC-MS/MS analysis; format: ADME, organism-based; details: in vivo, po
[19] = Oral bioavailability in ICR mouse at 25 mg/kg by LC-MS/MS analysis; format: ADME, organism-based; details: in vivo

Row | SMILES | viability at 10 µM [1] | also measured
1 | CCN(CCN)Cc1cccc(C#N)c1Cl | 93.1% | 
2 | CCN(CCN)Cc1cccc(Br)c1I | 11.5% | 
3 | CCN(CCN)C1(c2cccc(Br)c2)CC1 | 39.1% | 
4 | CCN(CCN)Cc1ccc(F)c(C#N)c1 | 24.1% | 
5 | CCN(CCN)Cc1cccc(Br)c1F | 86.5% | 
6 | CCN(CCN)C(C)c1cc(Br)ccc1F (configuration not stated) | 90.7% | viability at 10 µM [2]: 36.6%
7 | CCN(CCN)Cc1cc(Br)ccc1Br | 83.4% | 
8 | CCN(CCN)C(C)c1cc(C#N)ccc1Cl (configuration not stated) | 77.7% | viability at 10 µM [2]: 61.1%
9 | NC1CCCN(Cc2cccc(Br)c2)C1 (configuration not stated) | 33% | 
10 | CCN(CCN)Cc1cc(C#N)ccc1F | 68.1% | 
11 | CCN(CCN)Cc1cc(C#N)ccc1I | 74.6% | 
12 | CCN(CCN)C(C)(C)c1cccc(Br)c1 | 52.5% | 
13 | CCN(CCN1CCCC1)Cc1cccc(Br)c1 | 19.3% | 
14 | CCN(CCN)C(C)c1c(F)ccc(Br)c1F (configuration not stated) | 51.6% | 
15 | CCN(CCNC)Cc1cccc(Br)c1 | 17.6% | 
16 | CCN(CCN)Cc1c(F)ccc(C#N)c1F | 90.4% | 
17 | CCN(CCN)Cc1cc(Br)cc(C#N)c1 | 33% | 
18 | CCN(CCN)Cc1cccc([N+](=O)[O-])c1 | 36% | 
19 | CCN(CCN)Cc1cc(F)cc(C#N)c1 | 24% | 
20 | CCN(CCN)Cc1ccccc1Br | 46.2% | 
21 | CCN(CCN)C(C)c1cc(Br)ccc1Cl (configuration not stated) | 81.6% | viability at 10 µM [2]: 46.6%

Row | SMILES | viability at 10 µM [1] | also measured
22 | CCN(CCN)C(C)c1cccc(Br)c1 (configuration not stated) | 95.9% | viability at 10 µM [2]: 53.2%
23 | CCN(CCN)Cc1cc(Br)ccc1Cl | 84.9% | 
24 | CCN(CCN)C(C)c1c(Cl)ccc(C#N)c1F (configuration not stated) | 64.5% | viability at 10 µM [2]: 38.8%
25 | CCN(CCN)Cc1cccc(Br)c1Br | 86.5% | 
26 | CCN(CCN)Cc1cc(F)cc(Br)c1 | 18.3% | 
27 | CCN(CCN)Cc1cc(C#N)ccc1Br | 77.8% | 
28 | CCN(CCN)Cc1cccc(I)c1 | 44% | 
29 | CCN(CCN)C(C)c1cccc(C#N)c1Br (configuration not stated) | 67.4% | viability at 10 µM [2]: 43.2%
30 | CCN(CCN)C(C)c1cc(C#N)ccc1F (configuration not stated) | 82.4% | viability at 10 µM [2]: 34.6%
31 | CCN(CCN)Cc1cccc(Br)c1Cl | 47.1% | 
32 | CCN(CCN)Cc1cccc(C#N)c1 | 92.4% | 
33 | NC1CCN(Cc2cccc(Br)c2)C1 (configuration not stated) | 20.1% | 
34 | CCN(CCN)C(C)c1cc(Br)ccc1Br (configuration not stated) | 46.6% | 
35 | CCN(CCN)Cc1cccc(C(F)(F)F)c1 | 16.9% | 
36 | CCN(CCN)Cc1cccc(-c2ccccc2)c1 | 24.9% | 
37 | CCN(CCN)C(C)c1cccc(C#N)c1Cl (configuration not stated) | 85.3% | viability at 10 µM [2]: 59.8%
38 | CCN(CCN)Cc1cccc(C)c1 | 22.7% | 
39 | CCN(CCN)Cc1ccc(Br)cc1 | 21.2% | 
40 | CCN(CCN)C(C)c1c(F)ccc(C#N)c1Cl (configuration not stated) | 70.5% | viability at 10 µM [2]: 64.3%
41 | CCN(CCN)Cc1ccc(Br)c(C#N)c1 | 22.2% | 
42 | CCN(CCN)Cc1c(Cl)ccc(C#N)c1F | 82.9% | 

Row | SMILES | viability at 10 µM [1] | also measured
43 | CCN(CCN)C(C)c1cccc(Br)c1F (configuration not stated) | 77% | viability at 10 µM [2]: 55.6%
44 | CCN(CCCN)Cc1cccc(Br)c1 | 10.8% | 
45 | CCN(CCN)C(C)c1cccc(C#N)c1F (configuration not stated) | 70.4% | viability at 10 µM [2]: 44.5%
46 | CCCN(CCN)Cc1cccc(Br)c1 | 44.6% | 
47 | CCN(CCN)Cc1cccc(C#N)c1F | 79.7% | 
48 | CCC(c1cccc(Br)c1)N(CC)CCN (configuration not stated) | 38.3% | 
49 | CCN(CCN)Cc1c(F)ccc(Br)c1F | 97.9% | 
50 | CCN(CCN)Cc1cccc(Br)c1 | 63.2% | viability at 10 µM [2]: 26.5%; half-life [3]: 1.82 h; Tmax [4]: 4.98 min; Cmax [5]: 207 ng/mL; AUC(0-t) [6]: 282 ng·h/mL; AUC(0-inf) [7]: 295 ng·h/mL; Vd [8]: 44.1 L/kg; clearance [9]: 293 mL/min/kg; MRT last [10]: 1.76 h; MRT inf [11]: 2.15 h; half-life [12]: 2.07 h; Tmax [13]: 0.583 h; Cmax [14]: 348 ng/mL; AUC(0-t) [15]: 914 ng·h/mL; AUC(0-inf) [16]: 980 ng·h/mL; MRT last [17]: 2.38 h; MRT inf [18]: 2.96 h; bioavailability [19]: 66.4%
51 | CCN(CCN)C(C)c1cccc(C#N)c1 (configuration not stated) | 85.7% | viability at 10 µM [2]: 69.7%
52 | CCN(CCN)Cc1c(F)ccc(C#N)c1Cl | 88% | 
53 | CCN(CCN(C)C)Cc1cccc(Br)c1 | 18.4% | 
54 | CCN(CCN)Cc1cccc(C#N)c1Br | 76.5% | 
55 | CCN(CCN)Cc1cc(Br)ccc1F | 87.1% | 
56 | CCN(CCN)Cc1cccc(Cl)c1 | 44.3% | 
57 | CCN(CCN)Cc1ccc(Cl)c(C#N)c1 | 22.6% | 
58 | CCN(CCN)Cc1cccc(OC)c1 | 39.6% | 
59 | CCN(CCN)Cc1cc(C#N)ccc1Cl | 86.5% | 
60 | CCN(CCN)Cc1ccc(F)c(Br)c1 | 26.6% | 
61 | CCN(CCN)C(C)c1cc(C#N)ccc1Br (configuration not stated) | 55% | 
62 | CCN(CCN)Cc1cccc(F)c1 | 32% | 
